Laboratory results: patent US20070092939A1, “HUMAN IMMUNODEFICIENCY VIRUS ENTRY INHIBITOR ASSAY” (priority 2003, published 2007)

Tested on: co-cultivation-induced fusion between HL2/3 and HeLa-CD4-LTR-β-gal cells
Assay: Cell fusion assay by co-cultivation of HL2/3 and HeLa-CD4-LTR-β-gal cells, β-galactosidase chemiluminescence readout
Assay type: cell-based
Conditions: for Response Chemiluminescence / Response Inhibition (%): Table 1; for Chemiluminescence / Inhibition: Table 2 specificity test
Description: Depending on the culture vessel (T75 or T175), 0.5−2.0×10^6 HL2/3 or HeLa-CD4-LTR-β-gal cells were seeded into their respective Propagation Medium (for HL2/3, DMEM containing 10% FBS and 0.5 mg/ml G418; for HeLa-CD4-LTR-β-gal, DMEM containing 10% FBS, 0.2 mg/ml G418, and 0.1 mg/ml hygromycin B). Culture at 37° C. with 95% air/5% CO2 until the cultures reach 60% confluency, but can not exceed 95% confluency.
Remove medium by aspiration with 2-ml of glass pipette. Add 5 ml (for T75 flask) or 10 ml (for T175 flask) of the cell dissociation buffer (CDB). Incubate at room temperature for at least 20 minutes. While waiting, prepare potential entry inhibitor (e.g. TNX-355) with cold Assay Medium (DMEM supplemented with 10% FBS) for treatment. Harvest cells in a 15-ml (for T75) or 50-ml (for T175) conical centrifuge tube by repeated pipetting. Determine cell density and viability in 100 μl of samples with Trypan Blue Exclusion method. Centrifuge at 1000 rpm (or 201×g) for 5 minutes. Discard supernatant and resuspend cells in pre-warmed Assay Medium at a cell density of 1×10^6 cells/ml (for HeLa-CD4-LTR-β-gal cells) or 2×10^6 cells/ml (for HL2/3 cells).
Further dilute HeLa-CD4-LTR-β-gal cells to 0.25×10^6 cells/ml with pre-warmed Assay Medium, and pipette 90 μl to each well of a 96-well clear-bottom white-wall plate using a 12-channel pipet. Add 20 μl of drug or medium to each well as needed. Further dilute HL2/3 cells to 0.5×10^6 cells/ml with pre-warmed Assay Medium, and pipette 90 μl to each well of a 96-well clear-bottom white-wall plate using a 12-channel pipet. Total cells in each well is 6.75×10^4 cells at a ratio of 2:1 (HL2/3 to HeLa-CD4-LTR-β-gal cells). Culture cells at 37° C. with 95% air/5% CO2 for about 24 hours.
Remove the medium row by row, immediately followed by addition of 50 μl/well of Lysis Solution (Roche Lysis Buffer containing protease inhibitors). Incubate for 60 minutes at 15-25° C. with mild shaking (200-300 rpm). While waiting, dilute 1 volume of concentrated substrate with 99 volumes of Reaction Buffer to make working substrate solution.
Add 100 μl of the substrate reagent to each well row by row using 12-channel pipette. Incubate for 90 minutes at room temperature with mild shaking (200-300 rpm). While waiting, bring proper volume of Accelerator II solution to room temperature. Add 50 μl of the Accelerator II to each well row by row using 12-channel pipette. Measure light emission with a microplate luminometer. The chemiluminescence readout is reported as light units per second.
The inhibition of HIV entry inhibitors, including TNX-355, T20, SIM.4, and sCD4, was tested on the co-cultivation-induced fusion between the two cell lines (HL2/3 to HeLa-CD4-LTR-β-gal cells). TNX-355 is a humanized anti-CD4 domain 2 antibody, T20 a synthetic oligopeptide mimicking the […] HR-2 region, SIM.4 a monoclonal anti-CD4 domain 1 antibody, and sCD4 is a soluble extracellular portion of CD4 molecule. Multiple levels of each reagent were tested following the procedures described in the Materials and Methods.
Assay specificity was addressed by comparing the inhibitory activity of TNX-355 to those of two structurally similar but functionally irrelevant antibodies. These antibodies are TNX-224 (a humanized antibody IgG4 which differs in complementary determining regions (CDR) but share a majority of sequence homology to TNX-355) and TNX-901 (a humanized antibody IgG1).

Q: Which results are given for “TNX-355: humanized anti-CD4 domain 2 antibody, IgG4”?
A: Response Chemiluminescence (reagent 0.1 ng/ml): 39185 ± 1260.79 light units per second; Response Inhibition (%) (reagent 0.1 ng/ml): 23.2%; Response Chemiluminescence (reagent 10 ng/ml): 34525 ± 2281.39 light units per second; Response Inhibition (%) (reagent 10 ng/ml): 33.7%; Response Chemiluminescence (reagent 25 ng/ml): 29152 ± 2492.87 light units per second; Response Inhibition (%) (reagent 25 ng/ml): 45.8%; Response Chemiluminescence (reagent 50 ng/ml): 23993 ± 650.74 light units per second; Response Inhibition (%) (reagent 50 ng/ml): 57.3%; Response Chemiluminescence (reagent 100 ng/ml): 18724 ± 989.73 light units per second; Response Inhibition (%) (reagent 100 ng/ml): 69.2%; Response Chemiluminescence (reagent 200 ng/ml): 12312 ± 1516.60 light units per second; Response Inhibition (%) (reagent 200 ng/ml): 83.5%; Response Chemiluminescence (reagent 1000 ng/ml): 6896 ± 383.09 light units per second; Response Inhibition (%) (reagent 1000 ng/ml): 95.7%; Response Inhibition (%) (reagent 10000 ng/ml): 100.0%; Response Chemiluminescence (reagent 10000 ng/ml, about 24 hours co-cultivation): 4978 ± 669.32 light units per second; Chemiluminescence (antibody amount 0.025 μg/ml): 34121 ± 714.43 light units per second; Inhibition (antibody amount 0.025 μg/ml): 20%; Chemiluminescence (antibody amount 1.0 μg/ml): 5135 ± 432.41 light units per second; Inhibition (antibody amount 1.0 μg/ml): 88%

B1: TNX-901: humanized antibody IgG1; functionally irrelevant control (antibody, chains of the INN, looked up, V domains shown)
VH: QVQLVQSGAEVKKPGASVKVSCKASGYTFSMYWLEWVRQAPGHGLEWVGEISPGTFTTNYNEKFKARATFTADTSTNTAYMELSSLRSEDTAVYYCARFSHFSGSNYDYFDYWGQGTLVTVSS
VL: DILLTQSPGTLSLSPGERATLSCRASQSIGTNIHWYQQKPGQAPRLLIKYASESISGIPSRFSGSGSGTDFTLTISRLEPEDFAMYYCQQSDSWPTTFGQGTKVEIK
Q: What does the source list for B1?
A: Chemiluminescence (antibody amount 0.025 μg/ml): 42629 ± 664.10 light units per second; Inhibition (antibody amount 0.025 μg/ml): 0%; Chemiluminescence (antibody amount 10 μg/ml): 42847 ± 1429.78 light units per second; Inhibition (antibody amount 10 μg/ml): 0%
